{
  "source": "patent US20080267941A1",
  "about": "“Nutrition Comprising Betaine Against Muscle Wasting” (N. V. Nutricia, priority 2005, published 2008)",
  "test_system": "muscles of normal healthy rats",
  "test": "Resting muscle glycogen levels in rats after 6 weeks of oral betaine supplementation",
  "type": "in vivo, rat",
  "settings": "for Resting glycogen levels in rats: male Wistar rats, 60 mg betaine in 1 ml vanilla custard orally each day for 6 weeks, *P < 0.05",
  "procedure": "Experiments were performed on 8 male Wistar rats, 250-300 gram, which were housed individually, and had free access to water and food. All experimental procedures were approved by the Institutional Animal Care and Use Committee of the Netherlands, and complied with the principles of laboratory animal care. To determine the effect of oral betaine supplementation, the betaine group (n=4) received 1 ml vanilla custard each day in combination with 60 mg betaine (Sigma Aldrich), and the control group (n=4) received 1 ml vanilla custard. After 6 weeks of supplementation, the fast extensor digitorum longus, (EDL) and slow-(soleus) muscles were removed for further biochemical analysis and frozen in liquid nitrogen. Muscles were stored at −80° C. until analysis. Thereafter, muscles were freeze-dried during 3 days at −4° C. The freeze-dried muscles were crushed to powder, 400 μl 1M HCl was added to approximately 10 mg tissue and hydrolysed at 98° C. during 2 hours. After cooling down, 400 μl 1M NaOH was added to neutralize the samples and the samples were centrifuged 5 minutes at 13,000 rpm. Glycogen content was determined fluorimetrically by a glucose kit (Roche Diagnostics) and expressed as μmol glycosyl units·g^−1.",
  "note": "Where a name gives a salt, the structure may show the parent alone.",
  "data": [
    {"smiles": "C[N+](C)(C)CC(=O)O", "note": "[betaine, 1-carboxy-N,N,N-trimethylmethanaminium inner salt]", "values": [
      {"measurement": "Resting glycogen levels in rats", "setting": "EDL (fast extensor digitorum longus) muscle", "result": "120 + 4* μmol glycosyl units/g tissue"},
      {"measurement": "Resting glycogen levels in rats", "setting": "Soleus (slow) muscle", "result": "137 ± 16* μmol glycosyl units/g tissue"},
      {"measurement": "glycogen content of the muscle cells", "setting": "rats given vanilla custard containing betaine vs vanilla custard control", "result": "significantly increases"}
    ]}
  ]
}
